Test results reported in PMC3914206.

Experiments:
Assay type in all cases: binding
Details in all cases: Compound Concentration 10 µM
panel of 442 kinases [1] = molecular target: T1, panel of 442 kinases (Homo sapiens, UniProt P49841)
T1 construct: purchased KINOMEscan
Excerpt: (§1) We assessed the selectivity of members of this scaffold using the KINOMEscan methodology across a near comprehensive panel of 442 kinases [[18,27]].

panel of 442 kinases [2] = molecular target: T2, panel of 442 kinases (Homo sapiens, UniProt P32298)
T2 construct: purchased KINOMEscan
T2 sequence (P32298 whole entry): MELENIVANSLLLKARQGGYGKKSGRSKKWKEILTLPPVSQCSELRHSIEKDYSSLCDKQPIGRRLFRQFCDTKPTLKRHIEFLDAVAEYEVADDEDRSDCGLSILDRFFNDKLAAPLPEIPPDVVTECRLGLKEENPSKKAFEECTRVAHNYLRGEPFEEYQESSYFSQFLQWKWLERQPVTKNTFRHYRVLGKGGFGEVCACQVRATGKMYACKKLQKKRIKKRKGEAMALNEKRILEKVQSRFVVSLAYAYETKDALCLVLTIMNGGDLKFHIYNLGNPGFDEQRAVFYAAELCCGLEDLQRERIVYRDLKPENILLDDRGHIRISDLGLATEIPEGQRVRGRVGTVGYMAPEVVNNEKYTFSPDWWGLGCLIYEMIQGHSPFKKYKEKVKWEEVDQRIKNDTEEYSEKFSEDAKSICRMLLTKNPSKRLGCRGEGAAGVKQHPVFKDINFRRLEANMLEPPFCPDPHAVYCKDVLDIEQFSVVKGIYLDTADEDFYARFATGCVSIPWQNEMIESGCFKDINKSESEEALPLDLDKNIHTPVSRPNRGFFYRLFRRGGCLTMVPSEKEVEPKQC
Excerpt: as §1

panel of 442 kinases [3] = molecular target: T3, panel of 442 kinases (Homo sapiens, UniProt Q00532)
T3 construct: purchased KINOMEscan
T3 sequence (Q00532 whole entry): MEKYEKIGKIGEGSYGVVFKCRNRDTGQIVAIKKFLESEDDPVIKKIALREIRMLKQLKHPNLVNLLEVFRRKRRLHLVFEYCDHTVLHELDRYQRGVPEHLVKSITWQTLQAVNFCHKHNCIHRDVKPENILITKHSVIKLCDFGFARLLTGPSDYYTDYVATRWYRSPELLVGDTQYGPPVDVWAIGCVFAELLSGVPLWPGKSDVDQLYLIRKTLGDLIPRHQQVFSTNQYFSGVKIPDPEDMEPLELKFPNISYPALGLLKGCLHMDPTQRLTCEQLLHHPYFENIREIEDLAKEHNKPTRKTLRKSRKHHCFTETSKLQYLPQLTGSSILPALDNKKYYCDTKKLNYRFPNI
Excerpt: as §1

panel of 442 kinases [4] = molecular target: T4, panel of 442 kinases (Homo sapiens, UniProt Q5VT25)
T4 construct: purchased KINOMEscan
T4 sequence (Q5VT25 whole entry): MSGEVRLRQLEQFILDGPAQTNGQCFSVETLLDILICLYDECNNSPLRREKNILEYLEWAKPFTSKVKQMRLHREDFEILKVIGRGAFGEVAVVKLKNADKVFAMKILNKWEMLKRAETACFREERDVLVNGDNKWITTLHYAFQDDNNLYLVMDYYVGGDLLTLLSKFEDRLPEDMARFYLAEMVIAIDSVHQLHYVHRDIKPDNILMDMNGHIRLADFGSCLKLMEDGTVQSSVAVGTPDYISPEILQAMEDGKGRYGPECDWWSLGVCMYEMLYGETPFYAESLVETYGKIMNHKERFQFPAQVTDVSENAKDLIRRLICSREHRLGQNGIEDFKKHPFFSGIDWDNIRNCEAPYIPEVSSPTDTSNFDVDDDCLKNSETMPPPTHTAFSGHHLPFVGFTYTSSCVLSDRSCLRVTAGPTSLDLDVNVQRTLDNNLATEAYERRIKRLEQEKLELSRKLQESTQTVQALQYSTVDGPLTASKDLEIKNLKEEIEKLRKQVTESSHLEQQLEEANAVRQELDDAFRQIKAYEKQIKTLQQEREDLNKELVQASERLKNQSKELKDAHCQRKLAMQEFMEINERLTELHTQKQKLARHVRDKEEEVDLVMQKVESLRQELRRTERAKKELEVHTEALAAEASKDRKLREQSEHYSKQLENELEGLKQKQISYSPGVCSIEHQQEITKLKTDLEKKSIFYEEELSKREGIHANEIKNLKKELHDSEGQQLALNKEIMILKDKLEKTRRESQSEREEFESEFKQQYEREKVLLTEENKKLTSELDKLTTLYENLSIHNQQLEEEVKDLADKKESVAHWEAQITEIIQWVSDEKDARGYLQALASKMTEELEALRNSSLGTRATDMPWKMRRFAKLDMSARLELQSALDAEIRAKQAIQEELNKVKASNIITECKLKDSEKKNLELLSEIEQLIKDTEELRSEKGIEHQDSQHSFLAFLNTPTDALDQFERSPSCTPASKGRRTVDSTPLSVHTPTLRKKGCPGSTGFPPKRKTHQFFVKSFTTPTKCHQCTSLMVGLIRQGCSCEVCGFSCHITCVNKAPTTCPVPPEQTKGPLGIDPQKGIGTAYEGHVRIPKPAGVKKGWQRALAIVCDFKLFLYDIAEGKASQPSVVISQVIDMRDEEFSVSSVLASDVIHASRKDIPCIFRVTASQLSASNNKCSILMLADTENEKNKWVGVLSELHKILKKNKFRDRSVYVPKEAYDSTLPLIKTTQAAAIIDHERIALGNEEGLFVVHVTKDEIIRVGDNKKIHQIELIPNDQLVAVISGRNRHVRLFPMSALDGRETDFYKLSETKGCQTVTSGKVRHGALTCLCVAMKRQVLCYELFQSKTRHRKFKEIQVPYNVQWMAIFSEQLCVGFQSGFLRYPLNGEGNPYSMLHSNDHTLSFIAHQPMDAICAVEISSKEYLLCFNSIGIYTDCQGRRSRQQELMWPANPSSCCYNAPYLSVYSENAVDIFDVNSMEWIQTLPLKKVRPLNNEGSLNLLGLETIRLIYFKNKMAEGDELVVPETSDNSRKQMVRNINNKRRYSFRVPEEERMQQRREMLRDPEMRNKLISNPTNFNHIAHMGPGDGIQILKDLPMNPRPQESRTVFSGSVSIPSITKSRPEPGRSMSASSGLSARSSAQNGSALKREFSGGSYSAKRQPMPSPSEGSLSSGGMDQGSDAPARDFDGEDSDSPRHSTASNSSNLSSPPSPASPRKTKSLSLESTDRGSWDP
Excerpt: as §1

T1 sequence (P49841 whole entry): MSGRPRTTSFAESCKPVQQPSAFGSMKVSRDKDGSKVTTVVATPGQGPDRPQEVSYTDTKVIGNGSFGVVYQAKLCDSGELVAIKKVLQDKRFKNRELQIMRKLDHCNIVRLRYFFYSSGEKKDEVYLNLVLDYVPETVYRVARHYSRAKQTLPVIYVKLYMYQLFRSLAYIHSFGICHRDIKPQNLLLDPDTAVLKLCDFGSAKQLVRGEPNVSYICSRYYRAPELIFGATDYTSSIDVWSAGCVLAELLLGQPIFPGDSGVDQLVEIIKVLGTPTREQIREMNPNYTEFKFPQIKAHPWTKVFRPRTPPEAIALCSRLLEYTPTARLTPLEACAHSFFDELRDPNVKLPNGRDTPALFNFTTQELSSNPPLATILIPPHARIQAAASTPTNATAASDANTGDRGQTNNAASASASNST

| SMILES | KINOMEscan: GSK3B (panel of 442 kinases [1]) | KINOMEscan: GRK4 (panel of 442 kinases [2]) | KINOMEscan: CDKL1 (panel of 442 kinases [3]) | KINOMEscan: MRCKA (panel of 442 kinases [4]) |
| --- | --- | --- | --- | --- |
| COc1cc(C(=O)N2CCC(N3CCN(C)CC3)CC2)ccc1Nc1ncc2c(n1)N1CCc3cccc(c31)C(=O)N2C [Compound 24] | 72 |  |  |  |
| CCOc1cc(C(=O)N2CCC(N3CCN(C)CC3)CC2)ccc1Nc1ncc2c(n1)N(C1CCCC1)c1ccccc1C(=O)N2C [Compound 26] | 98 | 100 | 86 | 100 |
| COc1cc(C(=O)N2CCC(N3CCN(C)CC3)CC2)ccc1Nc1ncc2c(n1)N(C1CCCC1)c1ccccc1C(=O)N2C [Compound 25, 11-cyclopentyl-2-((2-methoxy-4-(4-(4-methylpiperazin-1-yl)piperidine-1-carbonyl)phenyl)amino)-5-methyl-5H-benzo[e]pyrimido[5,4-b][1,4]diazepin-6(11H)-one] | 80 | 98 | 100 | 100 |
| COc1cc(C(=O)N2CCC(N3CCN(C)CC3)CC2)ccc1Nc1ncc2c(n1)N(C)c1ccccc1C(=O)N2C [15 (LRRK2-IN-1)] | 88 | 86 | 78 | 100 |
